Source: patent US10392428B2, “GLP-1 derivatives and uses thereof” (Novo Nordisk A/S, priority 2014, dated 2019)
Read-outs that look alike come from different tables or passages of the source.

What was measured:
human GLP-1 receptor = target: T1, human GLP-1 receptor (Homo sapiens, UniProt P43220); assay: GLP-1 receptor binding: competitive binding assay (125I-GLP-1, SPA) on isolated membranes at low and high HSA
T1 construct: expressed in transfected cells; host or cells: membrane preparation from BHK cells, clone FCW467-12A (parent line BHKTS13)
Experimental: The purpose of this example is to test the receptor binding of the GLP-1 derivatives in vitro. The receptor binding is a measure of affinity of a derivative for the human GLP-1 receptor.
Each derivative is added in a series of concentrations to isolated membranes containing the human GLP-1 receptor and displacement of the labelled ligand is monitored. The receptor binding is reported as the concentration at which half of the labelled ligand is displaced from the receptor, the IC50 value.
Buffer 1 consisted of 20 mM Na-HEPES plus 10 mM EDTA and pH was adjusted to 7.4. Buffer 2 consisted of 20 mM Na-HEPES plus 0.1 mM EDTA and pH was adjusted to 7.4. Assay buffer consisted of 50 mM HEPES supplemented with 5 mM EGTA, 5 mM MgCl2, 0.005% Tween 20 and pH was adjusted to 7.4. An 8% albumin stock consisted of HSA dissolved at 8% (w/v) in assay buffer. An 0.02% albumin stock consisted of HSA dissolved at 0.02% (w/v) in assay buffer.
The cells express the human GLP-1 receptor.
The cells were grown at 5% CO2 in DMEM, 10% fetal calf serum, 1% Pen/Strep (Penicillin/Streptomycin) and 1.0 mg/ml of the selection marker G418.
To make a membrane preparation the cells were grown to approximately 80% confluence. The cells were washed twice in phosphate-buffered saline and harvested. The cells were pelleted using a brief centrifugation and the cell pellet was kept on ice. […] The homogenate was centrifuged for 15 minutes. The pellet was re-suspended (homogenised) in 10 ml buffer 2 and centrifuged. This step was repeated once more. The resulting pellet was re-suspended in buffer 2 and the protein concentration was determined. The membranes were aliquoted and stored at minus 80° C.
For the receptor binding assay in the presence of low HSA (0.005%) 50 μl of the assay buffer was added to each well of an assay plate.
For the receptor binding assay in the presence of high HSA (2%) 50 μl of the 8% albumin stock was added to each well of an assay plate.
Cell membrane aliquots were thawed and diluted to their working concentration. Fifty μl were added to each well in the assay plate.
WGA SPA beads were suspended in assay buffer at 20 mg/ml. The suspension was diluted to 10 mg/ml in assay buffer just prior to addition to the assay plate. Fifty μl were added to each well in the assay plate.
A 25 μl aliquot was reserved for measuring total counts/well.
The assay plate was incubated for 2 h at 30° C.
The assay plate was centrifuged for 10 min.
The assay plate was read in a Packard TopCount NXT instrument.
The data from the TopCount instrument were transferred to Graph Pad Prism software. Individual replicates were analysed using non-linear regression. IC50 values were calculated by the software and reported in nM. The reported values are averages of all of the measured values for each compound.

[1] = Pharmacokinetic study in minipigs (i.v.); conditions: male, Göttingen, minipig, in vivo, iv, minipigs, i.v., harmonic mean, read-out: Terminal half-live (converted)
Experimental: The derivatives of Examples 12, 14, and 15 were dosed 2 nmol/kg. The derivatives of Examples 1 and 2 were dosed 15 nmol/kg.

T1 sequence (P43220 24-463): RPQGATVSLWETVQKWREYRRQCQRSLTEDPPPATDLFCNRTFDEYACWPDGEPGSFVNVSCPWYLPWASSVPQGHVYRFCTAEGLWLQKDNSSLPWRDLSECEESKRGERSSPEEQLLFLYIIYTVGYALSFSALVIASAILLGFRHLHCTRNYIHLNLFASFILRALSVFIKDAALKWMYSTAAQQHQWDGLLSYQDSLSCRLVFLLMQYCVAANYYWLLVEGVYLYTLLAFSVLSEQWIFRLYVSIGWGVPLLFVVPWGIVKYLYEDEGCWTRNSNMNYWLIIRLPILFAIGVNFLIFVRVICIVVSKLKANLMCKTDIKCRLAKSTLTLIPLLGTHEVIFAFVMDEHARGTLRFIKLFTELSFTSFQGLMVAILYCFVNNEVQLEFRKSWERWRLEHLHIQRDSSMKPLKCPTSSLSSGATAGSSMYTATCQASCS

`CC[C@H](C)[C@H](NC(=O)[C@H](Cc1ccccc1)NC(=O)[C@H](CCC(=O)O)NC(=O)[C@H](CCCNC(=N)N)NC(=O)[C@H](C)NC(=O)[C@H](C)NC(=O)[C@H](CCC(N)=O)NC(=O)[C@H](CCC(=O)O)NC(=O)[C@H](CCC(=O)O)NC(=O)[C@H](CC(C)C)NC(=O)[C@H](Cc1ccc(O)cc1)NC(=O)[C@H](CO)NC(=O)[C@H](CO)NC(=O)[C@@H](NC(=O)[C@H](CC(=O)O)NC(=O)[C@H](CO)NC(=O)[C@@H](NC(=O)[C@H](Cc1ccccc1)NC(=O)[C@@H](NC(=O)CNC(=O)[C@H](CCC(=O)O)NC(=O)C(C)(C)NC(=O)[C@@H](N)Cc1c[nH]cn1)[C@@H](C)O)[C@@H](C)O)C(C)C)C(=O)N[C@@H](C)C(=O)N[C@@H](Cc1c[nH]c2ccccc12)C(=O)N[C@@H](CC(C)C)C(=O)N[C@H](C(=O)N[C@@H](CCCNC(=N)N)C(=O)NCC(=O)N[C@@H](CCCNC(=N)N)C(=O)N[C@@H](CCCCNC(=O)COCCOCCNC(=O)COCCOCCNC(=O)COCCOCCNC(=O)COCCOCCNC(=O)[C@H](CCCCNC(=O)COCCOCCNC(=O)CC[C@H](NC(=O)[C@H]1CC[C@H](CNC(=O)CCCCCCCCCCCCCCCCCCC(=O)O)CC1)C(=O)O)NC(=O)COCCOCCNC(=O)CC[C@H](NC(=O)[C@H]1CC[C@H](CNC(=O)CCCCCCCCCCCCCCCCCCC(=O)O)CC1)C(=O)O)C(=O)O)C(C)C` [Example 21, N{Epsilon-37}-[2-[2-[2-[[2-[2-[2-[[2-[2-[2-[[2-[2-[2-[[(2S)-2,6-bis[[2-[2-[2-[[(4S)-4-carboxy-4-[[4-[(19-carboxynonadecanoylamino)methyl]cyclohexanecarbonyl]amino]butanoyl]amino]ethoxy]ethoxy]acetyl]amino]hexanoyl]amino]ethoxy]ethoxy]acetyl]amino]ethoxy]ethoxy]acetyl]amino]ethoxy]ethoxy]acetyl]amino]ethoxy]ethoxy]acetyl]-[Aib8,Glu22,Arg26,Arg34,Lys37]-GLP-1-(7-37)-peptide] gave an IC50 (human GLP-1 receptor; High HSA IC50 (nM), high HSA (2.0% final assay concentration)) of 19 nM and an IC50 (human GLP-1 receptor; Low HSA IC50 (nM), low HSA (max. 0.001% final assay concentration)) of 1.5 nM.
Work on `CC[C@H](C)[C@H](NC(=O)[C@H](Cc1ccccc1)NC(=O)[C@H](CCC(=O)O)NC(=O)[C@H](CCCNC(=N)N)NC(=O)[C@H](C)NC(=O)[C@H](C)NC(=O)[C@H](CCC(N)=O)NC(=O)[C@H](CCC(=O)O)NC(=O)[C@H](CCC(=O)O)NC(=O)[C@H](CC(C)C)NC(=O)[C@H](Cc1ccc(O)cc1)NC(=O)[C@H](CO)NC(=O)[C@H](CO)NC(=O)[C@@H](NC(=O)[C@H](CC(=O)O)NC(=O)[C@H](CO)NC(=O)[C@@H](NC(=O)[C@H](Cc1ccccc1)NC(=O)[C@@H](NC(=O)CNC(=O)[C@H](CCC(=O)O)NC(=O)C(C)(C)NC(=O)[C@@H](N)Cc1c[nH]cn1)[C@@H](C)O)[C@@H](C)O)C(C)C)C(=O)N[C@@H](C)C(=O)N[C@@H](Cc1c[nH]c2ccccc12)C(=O)N[C@@H](CC(C)C)C(=O)N[C@H](C(=O)N[C@@H](CCCNC(=N)N)C(=O)NCC(=O)N[C@@H](CCCNC(=N)N)C(=O)N[C@@H](CCCCNC(=O)COCCOCCNC(=O)COCCOCCNC(=O)COCCOCCNC(=O)COCCOCCNC(=O)COCCOCCNC(=O)COCCOCCNC(=O)COCCOCCNC(=O)COCCOCCNC(=O)[C@H](CCCCNC(=O)CC[C@H](NC(=O)[C@H]1CC[C@H](CNC(=O)CCCCCCCCCCCCCCCCCCC(=O)O)CC1)C(=O)O)NC(=O)CC[C@H](NC(=O)[C@H]1CC[C@H](CNC(=O)CCCCCCCCCCCCCCCCCCC(=O)O)CC1)C(=O)O)C(=O)O)C(C)C` [Example 13] yielded a half-life ([1]; 5 nmol/kg) of 119 h.
In the case of `CC[C@H](C)[C@H](NC(=O)[C@H](Cc1ccccc1)NC(=O)[C@H](CCC(=O)O)NC(=O)[C@H](CCCNC(=N)N)NC(=O)[C@H](C)NC(=O)[C@H](C)NC(=O)[C@H](CCC(N)=O)NC(=O)[C@H](CCC(=O)O)NC(=O)[C@H](CCC(=O)O)NC(=O)[C@H](CC(C)C)NC(=O)[C@H](Cc1ccc(O)cc1)NC(=O)[C@H](CO)NC(=O)[C@H](CO)NC(=O)[C@@H](NC(=O)[C@H](CC(=O)O)NC(=O)[C@H](CO)NC(=O)[C@@H](NC(=O)[C@H](Cc1ccccc1)NC(=O)[C@@H](NC(=O)CNC(=O)[C@H](CCC(=O)O)NC(=O)C(C)(C)NC(=O)[C@@H](N)Cc1c[nH]cn1)[C@@H](C)O)[C@@H](C)O)C(C)C)C(=O)N[C@@H](C)C(=O)N[C@@H](Cc1c[nH]c2ccccc12)C(=O)N[C@@H](CC(C)C)C(=O)N[C@H](C(=O)N[C@@H](CCCNC(=N)N)C(=O)NCC(=O)N[C@@H](CCCNC(=N)N)C(=O)N[C@@H](CCCCNC(=O)COCCOCCNC(=O)COCCOCCNC(=O)[C@H](CCCCNC(=O)COCCOCCNC(=O)COCCOCCNC(=O)CC[C@H](NC(=O)[C@H]1CC[C@H](CNC(=O)CCCCCCCCCCCCCCCCCCC(=O)O)CC1)C(=O)O)NC(=O)COCCOCCNC(=O)COCCOCCNC(=O)CC[C@H](NC(=O)[C@H]1CC[C@H](CNC(=O)CCCCCCCCCCCCCCCCCCC(=O)O)CC1)C(=O)O)C(=O)O)C(C)C` [Example 2, N{Epsilon-37}-[2-[2-[2-[[2-[2-[2-[[(2S)-2,6-bis[[2-[2-[2-[[2-[2-[2-[[(4S)-4-carboxy-4-[[4-[(19-carboxynonadecanoylamino)methyl]cyclohexanecarbonyl]amino]butanoyl]amino]ethoxy]ethoxy]acetyl]amino]ethoxy]ethoxy]acetyl]amino]hexanoyl]amino]ethoxy]ethoxy]acetyl]amino]ethoxy]ethoxy]acetyl]-[Aib8,Glu22,Arg26,Arg34,Lys37]-GLP-1-(7-37)-peptide], the half-life ([1]; 15 nmol/kg) is reported as 130 h.
Compound `CC[C@H](C)[C@H](NC(=O)[C@H](Cc1ccccc1)NC(=O)[C@H](CCC(=O)O)NC(=O)[C@H](CCCNC(=N)N)NC(=O)[C@H](C)NC(=O)[C@H](C)NC(=O)[C@H](CCC(N)=O)NC(=O)[C@H](CCC(=O)O)NC(=O)[C@H](CCC(=O)O)NC(=O)[C@H](CC(C)C)NC(=O)[C@H](Cc1ccc(O)cc1)NC(=O)[C@H](CO)NC(=O)[C@H](CO)NC(=O)[C@@H](NC(=O)[C@H](CC(=O)O)NC(=O)[C@H](CO)NC(=O)[C@@H](NC(=O)[C@H](Cc1ccccc1)NC(=O)[C@@H](NC(=O)CNC(=O)[C@H](CCC(=O)O)NC(=O)C(C)(C)NC(=O)[C@@H](N)Cc1c[nH]cn1)[C@@H](C)O)[C@@H](C)O)C(C)C)C(=O)N[C@@H](C)C(=O)N[C@@H](Cc1c[nH]c2ccccc12)C(=O)N[C@@H](CC(C)C)C(=O)N[C@H](C(=O)N[C@@H](CCCNC(=N)N)C(=O)NCC(=O)N[C@@H](CCCNC(=N)N)C(=O)N[C@@H](CCCCNC(=O)COCCOCCNC(=O)COCCOCCNC(=O)COCCOCCNC(=O)COCCOCCNC(=O)[C@H](CCCCNC(=O)CC[C@H](NC(=O)[C@H]1CC[C@H](CNC(=O)CCCCCCCCCCCCCCCCCCC(=O)O)CC1)C(=O)O)NC(=O)CC[C@H](NC(=O)[C@H]1CC[C@H](CNC(=O)CCCCCCCCCCCCCCCCCCC(=O)O)CC1)C(=O)O)C(=O)O)C(C)C` [Example 8, N{Epsilon-37}-[2-[2-[2-[[2-[2-[2-[[2-[2-[2-[[2-[2-[2-[[(2S)-2,6-bis[[(4S)-4-carboxy-4-[[4-[(19-carboxynonadecanoylamino)methyl]cyclohexanecarbonyl]amino]butanoyl]amino]hexanoyl]amino]ethoxy]ethoxy]acetyl]amino]ethoxy]ethoxy]acetyl]amino]ethoxy]ethoxy]acetyl]amino]ethoxy]ethoxy]acetyl]-[Aib8,Glu22,Arg26,Arg34,Lys37]-GLP-1-(7-37)-peptide] has a half-life ([1]; 5 nmol/kg) of 145 h.
